Results reported in patent US5561150A, “Tricyclic pyrazole derivatives” (Hoffman-La Roche Inc., priority 1994, dated 1996).
Structures can show the parent of a compound that is named as a salt. Where two headings read alike, the source gives them in different places.

Experiments:
5HT2A receptor = 5HT2A receptor (Homo sapiens, UniProt P28223); experiment: [3H]-DOB binding assay, 5HT2A receptor (test method c)
Method: (§1) The binding of compounds of formula I in accordance with the invention to serotonin receptors was determined in vitro by standard methods. The compounds were investigated in accordance with the assays given hereinafter:
c) For the binding to the 5HT2A receptor in accordance with the [3H]-DOB binding assay according to the method of T. Branchek et al., Molecular Pharmacology 38, 604-609 (1990).
(§2) The pki values (pki =-log10 Ki) of the test substances are given. The ki value is defined by the following formula: [formula] in which the IC50 values are those concentrations of test compounds in nmol by which 50% of the receptor-bound ligands are displaced. [L] is the concentration of ligand and the KD value is the dissociation constant of the ligand.

5HT2C receptor [1] = experiment: [3H]-5-HT binding assay, 5HT2C receptor (test method b); settings: radioligand [3H]-5-HT, pki = -log10 Ki
Method: as §1
b) For the binding to the 5HT2C receptor in accordance with the [3H]-5-HT binding assay according to the method of S.J Peroutka et al., Brain Research 584, 191-196 (1992).
as §2

[2] = biological target: T1, recombinant human-5HT1A receptors (Homo sapiens, UniProt P08908); experiment: Displacement assay with [3H]-5-HT (1 nM) on recombinant human 5HT1A receptors expressed in 3T3 cells of mice (test method a); assay type: binding
T1 construct: expressed in transfected cells; host or cells: 3T3 cells of mice (membranes)
T1 sequence (P08908 1-422): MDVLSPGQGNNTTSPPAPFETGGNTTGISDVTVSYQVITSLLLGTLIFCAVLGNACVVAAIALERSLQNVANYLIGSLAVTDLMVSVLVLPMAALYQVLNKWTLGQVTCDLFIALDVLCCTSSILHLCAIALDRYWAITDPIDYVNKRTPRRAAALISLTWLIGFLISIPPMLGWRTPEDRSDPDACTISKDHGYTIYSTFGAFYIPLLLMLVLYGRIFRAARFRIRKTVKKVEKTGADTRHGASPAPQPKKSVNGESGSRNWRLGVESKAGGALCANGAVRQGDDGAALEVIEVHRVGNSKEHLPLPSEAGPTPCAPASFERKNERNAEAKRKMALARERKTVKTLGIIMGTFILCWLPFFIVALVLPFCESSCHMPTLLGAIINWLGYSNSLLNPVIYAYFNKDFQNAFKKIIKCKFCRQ
Method: as §1
[L] is the concentration of ligand and the KD value is the dissociation constant of the ligand.

5HT2C receptor [3] = biological target: T2, 5HT2C receptor (Rattus norvegicus, UniProt P08909); experiment: Penile erection (rats); assay type: in vivo; settings: 0.75 h, within 45 minutes after administration
T2 construct: from tissue; host or cells: living rats (in vivo, s.c. dosing)
T2 sequence (P08909 33-460): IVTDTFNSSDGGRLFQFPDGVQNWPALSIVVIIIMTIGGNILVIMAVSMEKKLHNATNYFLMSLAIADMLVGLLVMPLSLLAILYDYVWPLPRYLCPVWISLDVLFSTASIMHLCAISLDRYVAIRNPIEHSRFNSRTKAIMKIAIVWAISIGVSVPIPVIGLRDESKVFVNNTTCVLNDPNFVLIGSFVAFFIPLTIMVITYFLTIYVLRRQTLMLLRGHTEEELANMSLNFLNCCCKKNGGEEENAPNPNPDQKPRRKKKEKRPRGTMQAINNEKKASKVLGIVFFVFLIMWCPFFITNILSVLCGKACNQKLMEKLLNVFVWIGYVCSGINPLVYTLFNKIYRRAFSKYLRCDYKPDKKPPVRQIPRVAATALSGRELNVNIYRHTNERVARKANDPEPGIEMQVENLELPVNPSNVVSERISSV
Method: It has been shown that penile erection is dependent on stimulation of the 5HT2C receptor (see Berendsen & Broekkamp, Eur. J. Pharmacol. 135, 179-184 (1987)).
The number of penile erections was determined within 45 minutes after administration of the test substance. The ED50 is the dose which causes 50% of these erections.

[4] = 5HT1A, radioligand [3H]-5-HT (1 nM), pki = -log10 Ki, read-out: pKi, test method a (converted)
[5] = po, p.o., read-out: ED50 penile erection, p.o.
[6] = sc, s.c., read-out: ED50 penile erection, s.c.

Sequence of 5HT2A receptor (P28223 whole entry): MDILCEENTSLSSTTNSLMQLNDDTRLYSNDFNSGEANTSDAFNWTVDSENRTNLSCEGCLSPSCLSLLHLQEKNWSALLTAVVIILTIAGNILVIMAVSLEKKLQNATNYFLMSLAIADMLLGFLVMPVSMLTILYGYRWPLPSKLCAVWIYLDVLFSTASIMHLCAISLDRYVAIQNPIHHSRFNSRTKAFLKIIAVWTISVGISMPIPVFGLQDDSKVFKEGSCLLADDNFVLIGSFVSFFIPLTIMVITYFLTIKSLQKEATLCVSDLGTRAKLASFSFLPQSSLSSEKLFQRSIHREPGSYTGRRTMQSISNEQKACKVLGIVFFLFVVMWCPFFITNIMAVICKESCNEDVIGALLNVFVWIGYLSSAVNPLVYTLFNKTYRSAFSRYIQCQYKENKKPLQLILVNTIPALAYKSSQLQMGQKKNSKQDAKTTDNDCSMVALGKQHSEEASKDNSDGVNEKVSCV

SMILES | Ki (5HT2A receptor) | pKi, test method b (5HT2C receptor [1]) | Ki [2] | Ki [2, 4] | ED50 (5HT2C receptor [3]; [5]) | ED50 (5HT2C receptor [3]; [6])
CC(N)Cn1ncc2c1-c1cc(F)ccc1C2(C)C (racemic) [Example 12, (RS)-2-(7-fluoro-4,4-dimethyl-1,4-dihydroindeno[2,1-c]pyrazol-1-yl)-1-methyl-ethylamine fumarate (1:1)] | 141 nM | 7.72 | 1230 nM | – | – | –
COc1ccc2c(c1)-c1c(cnn1CC(C)N)C2(C)C (racemic) [Example 6, (RS)-2-(7-methoxy-4,4-dimethyl-1,4-dihydroindeno[2,1-c]pyrazol-1-yl)-1-methyl-ethylamine fumarate (1:1)] | 49 nM | 8.33 | 1820 nM | – | – | –
Cc1ccc2c(c1)-c1c(cnn1CC(C)N)C2(C)C (racemic) [Example 5, (RS)-2-(4,4,7-trimethyl-1,4-dihydroindeno[2,1-c]pyrazol-1-yl)-1-methyl-ethylamine fumarate (1:1)] | 191 nM | 7.90 | – | 631 nM | – | –
CCOc1ccc2c(c1)-c1c(cnn1CC(C)N)C2 (racemic) [Example 13, (RS)-2-(7-ethoxy-1,4-dihydroindeno[2,1-c]pyrazol-1-yl)-1-methyl-ethylaminefumarate (1:1)] | 49 nM | 8.38 | – | 1200 nM | 2.7 mg/kg | 0.5 mg/kg
COc1ccc2c(c1)-c1c(cnn1C[C@@H](C)N)C2 [Example 7, (R)-2-(7-methoxy-1,4-dihydro-indeno[2,1-c]pyrazol-1-yl)-1-methyl-ethylamine fumarate (1:1)] | 363 nM | 7.73 | 2450 nM | – | – | –
COc1ccc2c(c1)-c1c(c(C)nn1CC(C)N)C2 (racemic) [Example 8] | 832 nM | 7.13 | 6760 nM | – | – | –
Cc1ccc2c(c1)-c1c(cnn1C[C@H](C)N)C2(C)C [Example 3, (S)-2-(4,4,7-trimethyl-1,4-dihydro-indeno[2,1-c]pyrazol-1-yl)-1-methyl-ethylamine fumarate (1:1)] | 229 nM | 8.32 | – | 4170 nM | – | –
COc1ccc2c(c1)-c1c(cnn1CC(C)N)CC2.O=C(O)/C=C/C(=O)O (racemic) [Example 15, (RS)-2-(4,5-dihydro-8-methoxy-1H-benz[g]indazol-1-yl)-1-methyl-ethylamine fumarate (1:1)] | 81.3 nM | 8.28 | 1290 nM | – | – | –
CC(N)Cn1ncc2c1-c1cc(F)ccc1C2 (racemic) [Example 11, (RS)-2-(7-fluoro-1,4-dihydroindeno[2,1-c]pyrazol-1-yl)-1-methyl-ethylaminefumarate (1:1)] | 263 nM | 7.51 | – | 1780 nM | – | –
COc1ccc2ccc3cnn(CC(C)N)c3c2c1 (racemic) [Example 16, (RS)-2-(8-methoxy-1H-benz[g]indazol-1-yl)-1-methyl-ethylamine fumarate (1:0.5)] | 25.1 nM | 8.94 | 200 nM | – | – | –
COc1ccc2c(c1)-c1c(cnn1CC(C)N)C2 (racemic) [Example 1, (RS)-2-(7-methoxy-1,4-dihydro-indeno[2,1-c]pyrazol-1-yl)-1-methyl-ethylamine fumarate (1:1)] | 93.3 nM | 8.26 | 355 nM | – | 3.2 mg/kg | 0.32 mg/kg
CCOc1ccc2c(c1)-c1c(cnn1C[C@H](C)N)C2 [Example 18, (S)-2-(7-ethoxy-1,4-dihydro-indeno[2,1-c]pyrazol-1-yl)-1-methyl-ethylaminefumarate (1:1)] | 49 nM | 8.48 | – | 1000 nM | 2.3 mg/kg | 0.7 mg/kg
CCOc1ccc2c(c1)-c1c(cnn1C[C@@H](C)N)C2 [Example 17, (R)-2-(7-ethoxy-1,4-dihydro-indeno[2,1-c]pyrazol-1-yl)-1-methyl-ethylaminefumarate (1:1)] | 209 nM | 7.40 | – | – | – | –
Cc1ccc2c(c1)-c1c(cnn1CC(C)N)C2 (racemic) [Example 10, (RS)-2-(7-methyl-1,4-dihydroindeno[2,1-c]pyrazol-1-yl)-1-methyl-ethylamine fumarate (1:1)] | 50.1 nM | 8.32 | – | 1660 nM | – | –
COc1ccc2c(c1)Cc1cnn(CC(C)N)c1-2 (racemic) [Example 14, (RS)-2-(6-methoxy-1,4-dihydroindeno[2,1-c]pyrazol-1-yl)-1-methyl-ethylamine fumarate (1:1)] | 1550 nM | 6.70 | – | 2340 nM | – | –
COc1ccc2c(c1)-c1c(cnn1C[C@H](C)N)C2 [Example 2, (S)-2-(7-methoxy-1,4-dihydro-indeno[2,1-c]pyrazol-1-yl)-1-methyl-ethylamine fumarate (1:1)] | 49 nM | 8.57 | 339 nM | – | 1.4 mg/kg | 0.32 mg/kg
COc1ccc2c(c1)-c1c(cnn1C[C@H](C)N)C2(C)C [Example 4, (S)-2-(7-methoxy-4,4-dimethyl-1,4-dihydroindeno[2,1-c]pyrazol-1-yl)-1-methyl-ethylamine fumarate (1:1)] | 37.2 nM | 8.65 | 2630 nM | – | – | –
